Converted amounts (≈) assume the structure as drawn.
Legend:
Hep 3B2 = test: Cytotoxicity against human Hep3B cells assessed as reduction in cell viability at 10 to 100 uM after 72 hrs by MTT assay; format: cell-based; details: hep 3b2, 72 h
L02 = test: Cytotoxicity against human L02 cells assessed as reduction in cell viability at 10 to 100 uM after 72 hrs by MTT assay; format: cell-based; details: l02, 72 h
HEK293 = test: Cytotoxicity against HEK293 cells assessed as reduction in cell viability at 10 to 100 uM after 72 hrs by MTT assay; format: cell-based; details: human, hek293, 72 h
HUVEC = test: Cytotoxicity against HUVEC assessed as reduction in cell viability at 10 to 100 uM after 72 hrs by MTT assay; format: cell-based; details: human
[1] = Lipophilicity, log D of the compound at pH 7.4 by potentiometric titration method; format: physicochemical; details: buffer
[2] = MRT (0 to infinity) in Sprague-Dawley rat at 1 mg/kg, iv by LC-MS/MS; format: ADME, organism-based; details: in vivo
[3] = Effective permeability of the compound at pH 7.4 by PAMPA; format: ADME; details: read-out: Peff
Mus musculus [4] = test: Upregulation of plasma EPO level in C57BL/6 mouse assessed as EPO level at 50 mg/kg, po after 4 hrs by ELISA; format: functional
Mus musculus [5] = test: Hepatotoxicity in C57BL/6 mouse at 25 to 200 mg/kg, po administered every other day for 14 days measured on day 14 post last dose by H and E staining based assay; format: toxicity, organism-based; details: in vivo, 336 h
[6] = Cmax in Sprague-Dawley rat at 10 mg/kg, po by LC-MS/MS; format: ADME, organism-based; parameters: dose 10 mg/kg, route oral; details: in vivo
Mus musculus [7] = test: Toxicity in C57BL/6 mouse assessed as damage in lungs at 25 to 200 mg/kg, po administered every other day for 14 days measured on day 14 post last dose by H and E staining based assay; format: organism-based; details: in vivo, 336 h
[8] = Dissociation constant, pKa of the compound by potentiometric titration method; format: physicochemical
[9] = Apparent volume of distribution in Sprague-Dawley rat at 1 mg/kg, iv by LC-MS/MS; format: ADME, organism-based; details: in vivo, read-out: Vz
Rattus norvegicus [10] = test: AUC (0 to t) in Sprague-Dawley rat at 1 mg/kg, iv by LC-MS/MS; format: ADME, organism-based; details: in vivo
[11] = Half life in Sprague-Dawley rat at 1 mg/kg, iv by LC-MS/MS; format: ADME, organism-based; details: in vivo
Egl nine homolog 1 [12] = molecular target: T1, Egl nine homolog 1 (Homo sapiens, UniProt Q9GZT9)
Mus musculus [13] = test: Acute toxicity in C57BL/6 mouse assessed as effect on food intake at 25 to 200 mg/kg, po administered every other day for 14 days measured during compound dosing; format: organism-based; details: in vivo, 336 h
Rattus norvegicus [14] = test: AUC (0 to infinity) in Sprague-Dawley rat at 10 mg/kg, po by LC-MS/MS; format: ADME, organism-based; parameters: dose 10 mg/kg, time infinity, route oral; details: in vivo
Mus musculus [15] = test: Acute toxicity in C57BL/6 mouse assessed as effect on growth at 25 to 200 mg/kg, po administered every other day for 14 days; format: organism-based; details: in vivo, 336 h
Egl nine homolog 1 [16] = molecular target: T1, Egl nine homolog 1; remark: listed apart in the source
Mus musculus [17] = test: Acute toxicity in C57BL/6 mouse assessed as change in liver to body weight ratio at 25 to 200 mg/kg, po administered every other day for 14 days measured on day 14 post last dose; format: organism-based; details: in vivo, 336 h
Mus musculus [18] = test: Acute toxicity in C57BL/6 mouse assessed as change in spleen to body weight ratio at 25 to 200 mg/kg, po administered every other day for 14 days measured on day 14 post last dose; format: organism-based; details: in vivo, 336 h
Rattus norvegicus [19] = test: AUC (0 to t) in Sprague-Dawley rat at 10 mg/kg, po by LC-MS/MS; format: ADME, organism-based; details: in vivo
[20] = Clearance in Sprague-Dawley rat at 10 mg/kg, po by LC-MS/MS; format: ADME, organism-based; details: in vivo
Mus musculus [21] = test: Acute toxicity in C57BL/6 mouse assessed as change in kidney to body weight ratio at 25 to 200 mg/kg, po administered every other day for 14 days measured on day 14 post last dose; format: organism-based; details: in vivo, 336 h
Mus musculus [22] = test: Acute toxicity in C57BL/6 mouse assessed as change in heart to body weight ratio at 25 to 200 mg/kg, po administered every other day for 14 days measured on day 14 post last dose; format: organism-based; details: in vivo, 336 h
Mus musculus [23] = test: Acute toxicity in C57BL/6 mouse assessed as apparent signs of toxicity at 25 to 200 mg/kg, po administered every other day for 14 days; format: organism-based; details: in vivo, 336 h
Mus musculus [24] = test: Cardiotoxicity in C57BL/6 mouse at 25 to 200 mg/kg, po administered every other day for 14 days measured on day 14 post last dose by H and E staining based assay; format: toxicity, organism-based; details: in vivo, 336 h
[25] = Clearance in Sprague-Dawley rat at 1 mg/kg, iv by LC-MS/MS; format: ADME, organism-based; details: in vivo
Mus musculus [26] = test: Antianemic activity in C57BL/6 mouse cisplatin-induced anemia model assessed as increase in hemoglobin level at 10 mg/kg, po administered every other day for 30 days relative to control; format: functional
[27] = Intrinsic aqueous solubility of the compound at pH 7.4 by potentiometric titration method; format: physicochemical; details: buffer
Mus musculus [28] = test: Acute toxicity in C57BL/6 mouse assessed as change in lungs to body weight ratio at 25 to 200 mg/kg, po administered every other day for 14 days measured on day 14 post last dose; format: organism-based; details: in vivo, 336 h
[29] = Therapeutic index, ratio of compound effect for toxicity in C57BL/6 mouse to compound effect for upregulation of plasma EPO level in C57BL/6 mouse; format: organism-based; details: read-out: TI
Mus musculus [30] = test: Antianemic activity in C57BL/6 mouse cisplatin-induced anemia model assessed as increase in hemoglobin level at 25 mg/kg, po administered every other day for 30 days relative to control; format: functional
[31] = Half life in Sprague-Dawley rat at 10 mg/kg, po by LC-MS/MS; format: ADME, organism-based; details: in vivo
Mus musculus [32] = test: Acute toxicity in C57BL/6 mouse assessed as behavioral abnormality at 25 to 200 mg/kg, po administered every other day for 14 days; format: organism-based; details: in vivo, 336 h
Rattus norvegicus [33] = test: AUC (0 to infinity) in Sprague-Dawley rat at 1 mg/kg, iv by LC-MS/MS; format: ADME, organism-based; parameters: dose 1 mg/kg, route intravenous, time infinity; details: in vivo
Mus musculus [34] = test: Nephrotoxicity in C57BL/6 mouse at 25 to 200 mg/kg, po administered every other day for 14 days measured on day 14 post last dose by H and E staining based assay; format: toxicity, organism-based; details: in vivo, 336 h
Mus musculus [35] = test: Toxicity in C57BL/6 mouse assessed as damage in spleen at 25 to 200 mg/kg, po administered every other day for 14 days measured on day 14 post last dose by H and E staining based assay; format: organism-based; details: in vivo, 336 h
[36] = Tmax in Sprague-Dawley rat at 10 mg/kg, po by LC-MS/MS; format: ADME, organism-based; details: in vivo
[37] = MRT (0 to infinity) in Sprague-Dawley rat at 10 mg/kg, po by LC-MS/MS; format: ADME, organism-based; details: in vivo
[38] = Oral bioavailability in Sprague-Dawley rat at 10 mg/kg by LC-MS/MS; format: ADME, organism-based; details: in vivo
Mus musculus [39] = test: Acute toxicity in C57BL/6 mouse assessed as increase in body weight at 25 to 200 mg/kg, po administered every other day for 14 days measured during compound dosing; format: organism-based; details: in vivo, 336 h
Rattus norvegicus [40] = test: Apparent volume of distribution in Sprague-Dawley rat at 10 mg/kg, po by LC-MS/MS; format: ADME, organism-based; details: in vivo

T1 sequence (Q9GZT9 whole entry): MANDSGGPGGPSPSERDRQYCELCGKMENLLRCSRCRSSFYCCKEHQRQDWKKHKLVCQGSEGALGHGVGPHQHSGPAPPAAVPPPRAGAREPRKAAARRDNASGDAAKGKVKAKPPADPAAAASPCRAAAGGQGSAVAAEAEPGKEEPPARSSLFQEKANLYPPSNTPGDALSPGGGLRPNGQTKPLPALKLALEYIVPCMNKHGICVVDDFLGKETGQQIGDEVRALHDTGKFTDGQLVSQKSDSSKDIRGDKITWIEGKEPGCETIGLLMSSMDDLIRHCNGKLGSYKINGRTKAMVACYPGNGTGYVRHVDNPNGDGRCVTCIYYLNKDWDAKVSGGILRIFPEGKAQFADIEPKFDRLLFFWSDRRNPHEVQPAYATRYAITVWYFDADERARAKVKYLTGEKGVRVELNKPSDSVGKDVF

## O=C(O)CNC(=O)c1ncc(-c2cn(CCc3ccc(Cl)cc3)nn2)cc1O
Hep 3B2
  Activity: Non-Toxic
L02
  Activity: Non-Toxic
HEK293
  Activity: Non-Toxic
HUVEC
  Activity: Non-Toxic

## O=C(O)CNC(=O)c1ncc(-c2cn(CCCc3ccc(Cl)cc3)nn2)cc1O
[1]
  logD: 2.13
[2]
  MRT inf: 0.623 h
[3]
  Papp: 11.5 ×10⁻⁶ cm/s
Mus musculus [4]
  Activity: 1300 pg/mL
Mus musculus [5]
  Activity: Non-Toxic
[6]
  Cmax: 1550 ng/mL
Mus musculus [7]
  Activity: Non-Toxic
[8]
  pKa: 3.21
[9]
  Vd: 2.31 L/kg
Rattus norvegicus [10]
  AUCt: 923 ng·h/mL
[11]
  half-life: 1.51 h
Hep 3B2
  Activity: Non-Toxic
Egl nine homolog 1 [12]
  IC50: 62.2 nM
Mus musculus [13]
  Activity: Non-Toxic
Rattus norvegicus [14]
  AUC: 5440 ng·h/mL
Mus musculus [15]
  Activity: Non-Toxic
L02
  Activity: Non-Toxic
Egl nine homolog 1 [16]
  IC50: 1310 nM
Mus musculus [17]
  Activity: Non-Toxic
Mus musculus [18]
  Activity: Non-Toxic
Rattus norvegicus [19]
  AUCt: 4990 ng·h/mL
[20]
  CL/F: 31.2 mL/min/kg
Mus musculus [21]
  Activity: Non-Toxic
Mus musculus [22]
  Activity: Non-Toxic
Mus musculus [23]
  Activity: Non-Toxic
Mus musculus [24]
  Activity: Non-Toxic
[25]
  clearance: 19.4 mL/min/kg
Mus musculus [26]
  Activity: 61.9%
[27]
  solubility: 1180 µg/mL (≈ 2850 µM)
Mus musculus [28]
  Activity: Non-Toxic
[29]
  selectivity ratio: 10
Mus musculus [30]
  Activity: 96.7%
[31]
  half-life: 3.07 h
Mus musculus [32]
  Activity: Non-Toxic
Rattus norvegicus [33]
  AUC: 933 ng·h/mL
Mus musculus [34]
  Activity: Non-Toxic
HEK293
  Activity: Non-Toxic
Mus musculus [35]
  Activity: Non-Toxic
[36]
  Tmax: 0.917 h
[37]
  MRT inf: 3.28 h
[38]
  bioavailability: 54.1%
HUVEC
  Activity: Non-Toxic
Mus musculus [39]
  Activity: Toxic
Rattus norvegicus [40]
  Vz: 8.634 L/kg

## Cc1nc(C(=O)NCC(=O)O)c(O)c2ccc(Oc3ccccc3)cc12 [ROXADUSTAT]
[1]
  logD: 3.77
[3]
  Papp: 12.7 ×10⁻⁶ cm/s
[8]
  pKa: 3.15
Hep 3B2
  Activity: Non-Toxic
L02
  Activity: Non-Toxic
Mus musculus [26]
  Activity: 67.7%
[27]
  solubility: 255 µg/mL (≈ 725 µM)
Mus musculus [30]
  Activity: 92.5%
HEK293
  Activity: Non-Toxic
HUVEC
  Activity: Non-Toxic

Source: ChEMBL document CHEMBL4118236, “Click Chemistry-Based Discovery of [3-Hydroxy-5-(1 H-1,2,3-triazol-4-yl)picolinoyl]glycines as Orally Active Hypoxia-Inducing Factor Prolyl Hydroxylase Inhibitors with Favorable Safety Profiles for the Treatment of Anemia” (J Med Chem, 2018)
